According to the NIST ThermoML archive (doi:10.1016/j.jct.2018.04.010):
Numbers after ± are expanded uncertainties.

Key:
[1] = 101 kPa, Liquid, Vibrating tube method
[2] = xn = mol fraction of the nth substance listed; settings: 101 kPa, Liquid, Vibrating tube method, x2 = 0.333

| mass density ([1]; 293.15 K) [kg/m3] | mass density ([1]; 303.15 K) [kg/m3] | mass density ([1]; 313.15 K) [kg/m3] | mass density ([1]; 323.15 K) [kg/m3] | mass density ([2]; 293.15 K) [kg/m3] | mass density ([2]; 303.15 K) [kg/m3] | mass density ([2]; 313.15 K) [kg/m3] | mass density ([2]; 323.15 K) [kg/m3] | SMILES |
| --- | --- | --- | --- | --- | --- | --- | --- | --- |
| 792.6 ± 2 | 783 ± 2 | 773.5 ± 2 | 764 ± 2 | – | – | – | – | CO [methanol] |
| – | – | – | – | 1199.7 ± 2 | 1194.2 ± 2 | 1188.6 ± 2 | 1183.2 ± 2 | NC(N)=O [urea] + C[N+](C)(C)CCO.[Cl-] |
